According to patent US20090221653A1, “7-(2-amino-1-hydroxy-ethyl)-4-hydroxybenzothiazol-2(3H)-one-derivatives as beta2 adrenoreceptor agonists” (AstraZeneca AB, priority 2005, published 2009):
Where a name gives a salt, the structure may show the parent alone.

What was measured:
Adrenergic β2 = molecular target: T1, Adrenergic β2 (Homo sapiens, UniProt P07550); test: Alternative Adrenergic β2 Mediated cAMP Production in H292 cells (AlphaScreen cAMP detection); assay type: cell-based; conditions: for EC50: cAMP, test compounds incubated 60 minutes, 300 μM rolipram, read-out: β2 pEC50 (converted); for β2 Int Act: fraction relative to the maximum activity determined for formoterol, 60 minutes incubation
T1 construct: endogenous in cells; host or cells: H292 cells
Experimental: H292 cells were grown in 225 cm2 flasks incubator at 37° C., 5% CO2 in RPMI medium containing, 10% (v/v) FBS (foetal bovine serum) and 2 mM L-glutamine.
Adherent H292 cells were removed from tissue culture flasks by treatment with Accutase™ cell detachment solution for 15 minutes. Flasks were incubated for 15 minutes in a humidified incubator at 37° C., 5% CO2. Detached cells were re-suspended in RPMI media (containing 10% (v/v) FBS and 2 mM L-glutamine) at 0.05×10^6 cells per mL. 5000 cells in 100 μL were added to each well of a tissue-culture-treated 96-well plate and the cells incubated overnight in a humidified incubator at 37° C., 5% CO2. The culture media was removed and cells were washed twice with 100 μL assay buffer and replaced with 50 μL assay buffer (HBSS solution containing 10 mM HEPES pH7.4 and 5 mM glucose). […] Cells were incubated with rolipram for 10 minutes after which time test compounds were added and the cells were incubated for 60 minutes at room temperature. […] The reaction was stopped by removing supernatants, washing once with 100 μL assay buffer and replacing with 50 μL lysis buffer. The cell monolayer was frozen at −80° C. for 30 minutes (or overnight).
The concentration of cAMP (cyclic adenosine monophosphate) in the cell lysate was determined using AlphaScreen™ methodology. The frozen cell plate was thawed for 20 minutes on a plate shaker then 10 μL of the cell lysate was transferred to a 96-well white plate. 40 μL of mixed AlphaScreen™ detection beads pre-incubated with biotinylated cAMP, was added to each well and the plate incubated at room temperature for 10 hours in the dark. The AlphaScreen™ signal was measured using an EnVision spectrophotometer (Perkin-Elmer Inc.) with the recommended manufacturer's settings. cAMP concentrations were determined by reference to a calibration curve determined in the same experiment using standard cAMP concentrations. Concentration response curves for agonists were constructed and data was fitted to a four parameter logistic equation to determine both the pEC50 and Intrinsic Activity.

[1] = molecular target: T2, recombinant human Dopamine Subtype D2s receptors (Homo sapiens, UniProt P14416); test: Dopamine D2 selectivity assay, inhibition of [3H]-spiperone binding; conditions: membranes, [3H]-spiperone 0.16 nM; read-out: D2 bind pIC50 (converted)
T2 construct: purchased Perkin Elmer
Experimental: (§1) Membranes containing recombinant human Dopamine Subtype D2s receptors were obtained from Perkin Elmer. These were diluted in Assay Buffer (50 nm HEPES, 1 mM EDTA, 120 mM NaCl, 0.1% gelatin, pH 7.4) to provide a final concentration of membranes that gave a clear window between maximum and minimum specific binding.
Assays were performed in U-bottomed 96-well polypropylene plates. […] For each assay plate 8 replicates were obtained for [^3H]-spiperone binding in the presence of 30 μL vehicle (10% (v/v) DMSO in Assay Buffer; defining maximum binding) or 30 μL Haloperidol (10 μM final concentration; defining non-specific binding (NSB)). Membranes were then added to achieve a final volume of 300 μL. The plates were incubated for 2 hours at room temperature and then filtered onto PEI coated GF/B filter plates, pre-soaked for 1 hour in Assay Buffer, using a 96-well plate Tomtec cell harvester. Five washes with 250 μL wash buffer (50 mM HEPES, 1 mM EDTA, 120 mM NaCl, pH 7.4) were performed at 4° C. to remove unbound radioactivity. The plates were dried then sealed from underneath using Packard plate sealers and MicroScint-O (50 μL) was added to each well. The plates were sealed (TopSeal A) and filter-bound radioactivity was measured with a scintillation counter (TopCount, Packard BioScience) using a 3-minute counting protocol. Total specific binding (B0) was determined by subtracting the mean NSB from the mean maximum binding. NSB values were also subtracted from values from all other wells.

[2] = molecular target: T3, recombinant human adrenergic beta 1 receptors (Homo sapiens, UniProt P08588); test: Adrenergic β1 selectivity assay, inhibition of [125I]-Iodocyanopindolol binding; conditions: membranes, [125I]-Iodocyanopindolol; read-out: β1 bind pIC50 (converted)
T3 construct: purchased Euroscreen
Experimental: as §1, with “adrenergic beta 1” for “Dopamine Subtype D2s”, “Euroscreen.” for “Perkin Elmer.”, “mM” for “nm”
Assays were performed in U-bottomed 96-well polypropylene plates. […] Membranes were then added to achieve a final volume of 100 μL. The plates were incubated for 2 hours at room temperature and then filtered onto PEI coated GF/B filter plates, pre-soaked for 1 hour in Assay Buffer, using a 96-well plate Tomtec cell harvester. Five washes with 250 μL wash buffer (50 mM HEPES, 1 mM EDTA, 120 mM NaCl, pH 7.4) were performed at 4° C. to remove unbound radioactivity. The plates were dried then sealed from underneath using Packard plate sealers and MicroScint-O (50 μL) was added to each well. The plates were sealed (TopSeal A) and filter-bound radioactivity was measured with a scintillation counter (TopCount, Packard BioScience) using a 3-minute counting protocol.
(§2) Total specific binding (B0) was determined by subtracting the mean NSB from the mean maximum binding. NSB values were also subtracted from values from all other wells.

[3] = molecular target: T4, recombinant human α1D receptor (Homo sapiens, UniProt P25100); test: Adrenergic α1D selectivity assay, inhibition of [3H]-prazosin binding; conditions: HEK293 membranes, [3H]-prazosin 0.3 nM; read-out: α1 bind pIC50 (converted)
T4 construct: expressed in transfected cells; host or cells: HEK293
T4 sequence (P25100 1-572): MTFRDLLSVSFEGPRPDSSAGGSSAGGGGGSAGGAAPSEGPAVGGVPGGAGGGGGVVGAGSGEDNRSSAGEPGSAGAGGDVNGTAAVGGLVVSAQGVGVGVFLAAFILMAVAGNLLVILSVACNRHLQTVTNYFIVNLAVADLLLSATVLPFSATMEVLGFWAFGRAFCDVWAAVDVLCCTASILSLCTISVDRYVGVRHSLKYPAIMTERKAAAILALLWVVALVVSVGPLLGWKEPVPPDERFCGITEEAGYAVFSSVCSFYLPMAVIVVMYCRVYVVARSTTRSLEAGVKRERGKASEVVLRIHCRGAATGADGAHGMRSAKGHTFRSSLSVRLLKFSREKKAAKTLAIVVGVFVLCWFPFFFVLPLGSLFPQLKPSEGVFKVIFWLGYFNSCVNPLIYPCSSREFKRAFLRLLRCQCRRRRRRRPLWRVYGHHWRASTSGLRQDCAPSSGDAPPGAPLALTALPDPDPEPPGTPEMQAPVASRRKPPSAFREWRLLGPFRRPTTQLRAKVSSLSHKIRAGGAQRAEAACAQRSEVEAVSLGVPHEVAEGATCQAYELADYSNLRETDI
Experimental: Membranes were prepared from human embryonic kidney 293 (HEK293) cells expressing recombinant human α1D receptor. These were diluted in Assay Buffer (50 mM HEPES, 1 mM EDTA, 0.1% gelatin, pH 7.4) to provide a final concentration of membranes that gave a clear window between maximum and minimum specific binding.
Assays were performed in U-bottomed 96-well polypropylene plates. 10 μL [^3H]-prazosin (0.3 nM final concentration) and 10 μL of test compound (10× final concentration) were added to each test well. For each assay plate 8 replicates were obtained for [^3H]-prazosin binding in the presence of 10 μL vehicle (10% (v/v) DMSO in Assay Buffer; defining maximum binding) or 10 μL BMY7378 (10 μM final concentration; defining non-specific binding (NSB)). Membranes were then added to achieve a final volume of 100 μL. The plates were incubated for 2 hours at room temperature and then filtered onto PEI coated GF/B filter plates, pre-soaked for 1 hour in Assay Buffer, using a 96-well plate Tomtec cell harvester. Five washes with 250 μL wash buffer (50 mM HEPES, 1 mM EDTA, pH 7.4) were performed at 4° C. to remove unbound radioactivity. The plates were dried then sealed from underneath using Packard plate sealers and MicroScint-O (50 μL) was added to each well. The plates were sealed (TopSeal A) and filter-bound radioactivity was measured with a scintillation counter (TopCount, Packard BioScience) using a 3-minute counting protocol.
as §2

T1 sequence (P07550 whole entry): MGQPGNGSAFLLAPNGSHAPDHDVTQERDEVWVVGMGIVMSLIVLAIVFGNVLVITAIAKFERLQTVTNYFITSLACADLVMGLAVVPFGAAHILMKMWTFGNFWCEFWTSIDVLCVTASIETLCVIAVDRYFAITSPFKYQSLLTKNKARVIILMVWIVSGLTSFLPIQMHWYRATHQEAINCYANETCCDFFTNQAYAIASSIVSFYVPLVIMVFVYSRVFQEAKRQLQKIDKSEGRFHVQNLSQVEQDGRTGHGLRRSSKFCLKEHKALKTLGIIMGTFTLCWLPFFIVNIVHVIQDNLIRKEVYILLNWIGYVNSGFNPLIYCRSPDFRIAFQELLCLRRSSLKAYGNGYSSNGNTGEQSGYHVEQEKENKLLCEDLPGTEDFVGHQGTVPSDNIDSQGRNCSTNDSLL
T3 sequence (P08588 whole entry): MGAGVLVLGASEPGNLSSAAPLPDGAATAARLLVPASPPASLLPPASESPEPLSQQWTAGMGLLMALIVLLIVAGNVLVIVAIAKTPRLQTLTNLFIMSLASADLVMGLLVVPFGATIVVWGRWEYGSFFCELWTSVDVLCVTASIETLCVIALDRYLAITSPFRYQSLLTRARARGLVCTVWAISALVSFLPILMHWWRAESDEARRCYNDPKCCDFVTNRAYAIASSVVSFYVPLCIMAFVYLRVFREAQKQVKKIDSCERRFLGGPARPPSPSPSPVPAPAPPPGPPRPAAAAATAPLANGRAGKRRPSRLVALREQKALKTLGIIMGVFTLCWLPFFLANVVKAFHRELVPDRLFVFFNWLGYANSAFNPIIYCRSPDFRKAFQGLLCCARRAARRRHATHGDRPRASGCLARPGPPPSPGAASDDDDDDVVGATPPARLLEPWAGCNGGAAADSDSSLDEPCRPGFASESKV
T2 sequence (P14416 1-414 isoform P14416-2): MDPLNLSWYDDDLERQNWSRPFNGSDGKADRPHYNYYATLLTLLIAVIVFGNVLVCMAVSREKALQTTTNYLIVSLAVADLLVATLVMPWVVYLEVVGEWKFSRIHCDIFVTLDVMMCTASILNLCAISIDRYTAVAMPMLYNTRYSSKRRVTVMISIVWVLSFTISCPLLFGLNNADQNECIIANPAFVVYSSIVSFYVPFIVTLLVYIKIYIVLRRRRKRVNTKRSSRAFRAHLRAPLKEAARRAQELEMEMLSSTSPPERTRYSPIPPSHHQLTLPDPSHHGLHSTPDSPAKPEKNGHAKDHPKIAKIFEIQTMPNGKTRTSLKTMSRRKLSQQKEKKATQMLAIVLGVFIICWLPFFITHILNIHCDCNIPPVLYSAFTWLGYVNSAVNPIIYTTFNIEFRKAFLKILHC

Row | SMILES | EC50 (Adrenergic β2) | β2 Int Act (Adrenergic β2) | IC50 [1] | IC50 [2] | IC50 [3]
1 | O=c1[nH]c2c(O)ccc([C@@H](O)CNCCCSCCOCCc3cccc4ccccc34)c2s1 [Example 1, 4-Hydroxy-7-((1R)-1-hydroxy-2-{[3-({2-[2-(1-naphthyl)ethoxy]ethyl}thio)propyl]-amino}ethyl)-1,3-benzothiazol-2(3H)-one trifluoroacetate] | 0.1 nM | 1 | 200 nM |  | 
2 | O=c1[nH]c2c(O)ccc([C@@H](O)CNCCCOCCOCCc3ccccc3)c2s1 [Example 3, 4-Hydroxy-7-[(1R)-1-hydroxy-2-({3-[2-(2-phenylethoxy)ethoxy]propyl}amino)ethyl]-1,3-benzothiazol-2(3H)-one trifluoroacetate] | 0.126 nM | 0.9 |  |  | 
3 | Cl.O=c1[nH]c2c(O)ccc([C@@H](O)CNCCCSCCCOCCc3ccccc3)c2s1 [Example 6, 4-Hydroxy-7-{(1R)-1-hydroxy-2-[(3-{[3-(2-phenylethoxy)propyl]thio}propyl)amino]ethyl}-1,3-benzothiazol-2(3H)-one hydrochloride] |  | 0.9 |  | 3.98 nM | 
4 | O=c1[nH]c2c(O)ccc([C@@H](O)CNCCCOCCOCCc3cccc4ccccc34)c2s1 [Example 7, 4-Hydroxy-7-{(1R)-1-hydroxy-2-[(3-{2-[2-(1-naphthyl)ethoxy]ethoxy}propyl)amino]ethyl}-1,3-benzothiazol-2(3H)-one] |  | 1.1 |  |  | 631 nM
5 | Cl.O=c1[nH]c2c(O)ccc([C@@H](O)CNCCCSCCOCCc3ccccc3)c2s1 [Example 9, 4-Hydroxy-7-{(1R)-1-hydroxy-2-[(3-{[2-(2-phenylethoxy)ethyl]thio}-propyl)amino]ethyl}-1,3-benzothiazol-2(3H)-one hydrochloride] |  | 1 |  |  | 
6 | Cl.O=c1[nH]c2c(O)ccc([C@@H](O)CNCCSCCCNCCc3ccccc3)c2s1 [Example 11, 4-Hydroxy-7-((1R)-1-hydroxy-2-{[2-({3-[(2-phenylethyl)amino]propyl}thio)ethyl]amino}ethyl)-1,3-benzothiazol-2(3H)-one hydrochloride] |  | 0.9 |  | 251 nM | 126 nM
7 | CCc1ccc(CCNCCCSCCNC[C@H](O)c2ccc(O)c3[nH]c(=O)sc23)cc1 [Example 14, 7-[(1R)-2-({2-[(3-{[2-(4-Ethylphenyl)ethyl]amino}propyl)thio]ethyl}amino)-1-hydroxyethyl]-4-hydroxy-1,3-benzothiazol-2(3H)-one] | 3.98 nM | 0.9 |  | 50.1 nM | 100 nM
8 | CCOc1ccc(CCNCCCSCCNC[C@H](O)c2ccc(O)c3[nH]c(=O)sc23)cc1 [Example 16, 7-[(1R)-2-({2-[(3-{[2-(4-Ethoxyphenyl)ethyl]amino}propyl)thio]ethyl}amino)-1-hydroxyethyl]-4-hydroxy-1,3-benzothiazol-2(3H)-one] |  | 0.7 |  |  | 1580 nM
9 | O=c1[nH]c2c(O)ccc([C@@H](O)CNCCSCCCNCCc3cccc(C(F)(F)F)c3)c2s1 [Example 18, 4-Hydroxy-7-{(1R)-1-hydroxy-2-[(2-{[3-({2-[3-(trifluoromethyl)phenyl]ethyl}amino)propyl]thio}ethyl)amino]ethyl}-1,3-benzothiazol-2(3H)-one] | 3.16 nM | 0.8 |  | 100 nM | 251 nM
10 | O=c1[nH]c2c(O)ccc([C@@H](O)CNCCSCCCNCCc3ccccc3Cl)c2s1 [Example 20, 7-[(1R)-2-({2-[(3-{[2-(2-Chlorophenyl)ethyl]amino}propyl)thio]ethyl}amino)-1-hydroxyethyl]-4-hydroxy-1,3-benzothiazol-2(3H)-one] |  | 0.8 |  |  | 25.1 nM
11 | O=c1[nH]c2c(O)ccc([C@@H](O)CNCCCSCCNCCc3cccc(Cl)c3)c2s1 [Example 33, 7-[(1R)-2-({3-[(2-{[2-(3-Chlorophenyl)ethyl]amino}ethyl)thio]propyl}amino)-1-hydroxyethyl]-4-hydroxy-1,3-benzothiazol-2(3H)-one] |  | 1.1 | 1000 nM |  | 39.8 nM
12 | O=c1[nH]c2c(O)ccc([C@@H](O)CNCCOCCCNCCc3cccc(Cl)c3)c2s1 [Example 36, 7-((1R)-2-{[2-(3-{[2-(3-Chlorophenyl)ethyl]amino}propoxy)ethyl]amino}-1-hydroxyethyl)-4-hydroxy-1,3-benzothiazol-2(3H)-one] |  | 1 |  | 100 nM | 
13 | O=c1[nH]c2c(O)ccc([C@@H](O)CNCCSCCCNCCc3cccc(Cl)c3)c2s1 [Example 40, 7-[(1R)-2-({2-[(3-{[2-(3-Chlorophenyl)ethyl]amino}propyl)thio]ethyl}amino)-1-hydroxyethyl]-4-hydroxy-1,3-benzothiazol-2(3H)-one dihydrochloride] | 1 nM | 0.8 |  |  | 
